# Read-outs that look alike come from different tables or passages of the source.
# Assays:
# Format in all cases: cell-based, human
# MCF-7 cell line = test: In vitro anti-proliferative MTT assay, MCF-7; details: Homo sapiens
# Excerpt: The cytotoxicity results were obtained as median growth inhibitory concentration (IC50).
# (§1) MTT assay protocol. This method was applied in accordance with the comprehensive description in Supplementary data. […]
# (§2) 5 Raw data of cytotoxity and VEGFR -2 assay […]
# (§3) Experimental of biological testing
# (§4) 1. In vitro anti-proliferative activity
# (§5) MTT assay protocol was applied to assess the anti-proliferative activity of the synthesized compounds. Two human cancer cell lines (MCF-7 and HepG-2) and one normal cell line (WI-38) were used in this test. At first, the cell lines were cultured in RPMI -1640 medium with 10% fetal bovine serum. Antibiotics (100 units/ml penicillin and100 µg/ml streptomycin ) were added at 37 °C in a 5% CO2 incubator. The cell lines were seeded in a 96-well plate at a density of 1.0 x 10^4 cells / well at 37 °C for 24 h under 5% CO2. After incubation, the cells were treated with different […]
# (§6) concentration of the synthesized compounds and incubated for 24 h. After 24 h of drug treatment, 20 µl of MTT solution at 5mg/ml was added and incubated for 4 h. Dimethyl sulfoxide (DMSO) in volume of 100 µl was added into each well to dissolve the purple formazan formed. The colorimetric assay was measured and recorded at absorbance of 570 nm using a plate reader (EXL 800, USA). The relative cell viability in percentage was calculated as (A570 of treated samples/A570 of untreated sample) X 100. […]
# BAX = test: Western blot, BAX level in HepG2 cells; details: HepG2, 24 h
# Procedure: Compound 12lwas subjected to further cellular mechanistic study. The cellular levels of BAX and Bcl-2 were measured using the western blot technique after compound 12l was applied to HepG2 cells for 24 h.
# The western blot technique was applied in accordance with the comprehensive description in Supplementary data[38–40] […]
# The proteins expression of cleaved caspase‐3, BAX, and Bcl‐2 were determined using Western blot analysis. In brief, HepG2 cells were treated with control, or with the synthesized compounds.
# Then cells were lysed in 250 μL precold lysis buffer (pH 7.4: Tris‐Base [10 mM], NaCl [100 mM], ethylenediaminetetraacetic acid [EDTA, 25 mM], ethylene glycol bis (2‐aminoethyl) tetraacetic acid [EGTA, 25 mM], 1% [v/v] NP‐40, and 1% [v/v] Triton X‐100) supplemented with 1:350 protease:phosphatase inhibitors cocktail (Sigma). The cells were immediately frozen at −20°C for 1.5 hours for further lysis, collected by cell scraper, sonicated 3 × 10 seconds, and centrifuged (13000 rpm, 15 minutes). Total protein concentrations in the supernatant were determined colorimetrically using the Pierce 660 nm Protein Assay method (Thermo Fisher Scientific, Rockford, IL), with BSA as the standard. Equal amounts of protein (25 μg) samples were mixed with SDS‐loading buffer (pH 6.8: Tris‐HCl [700 mM], dithiothreitol [DTT, 600 mM], sodium dodecyl sulfate [SDS, 12%], glycerol [60%], and bromophenol blue [0.012%]), denatured by boiling at 95°C for 10 minutes, allowed to cool on ice for 15 minutes, vortexed vigorously for 30 seconds and loaded into SDS‐polyacrylamide gel and separated by an electrophoresis unit (Cleaver Scientific Ltd, UK), transferred onto polyvinylidene fluoride membranes (Bio‐Rad) for 35 minutes using a Trans‐Blot SD semi‐dry transfer cell (Bio‐Rad) at 250 mA and 22 V. Membranes were blocked with 5% (w/v) blotting grade dry milk (Bio‐Rad) in Tris‐buffered saline/Tween‐20 (TBS‐ T) (pH 7.5: Tris‐base [20 mM], NaCl [150 mM], and 0.05% [v/v] Tween‐ 20) while shaking for 1.5 hour at RT, and then incubated with the corresponding primary antibody against cleaved caspase‐3 antibody ([…], #9661; Cell Signaling Technology), β‐actin (1:2000, #A5060; Sigma), BAX (Biovision, USA) and Bcl‐2( Bioimaging, system, syngene, UK) for 9‐10 hours at 4°C in a […]
# three separate experiments. […]
# the synthesized compounds towards VEGFR-2. The crystal structure of VEGFR-2 was […]
# 2.03 Å). Sorafenib was used as reference ligand. To prepare the target protein, water molecules […]
# fields. […] The validation […]
# process was performed by redocking the co-crystallized ligand. The designed compounds together […]
# followed by energy minimization then prepared for docking. Docking process was carried through […]
# binding mode with target molecule.
# HepG2 cells = test: Flow cytometry apoptosis analysis (Annexin V/PI)
# Procedure: In details, 32.45 and 2.86% for early and late apoptotic phases, respectively compared to control, (6.56%,5.34%,1.22%, respectively) (Figure 5 and Table 5).
# Apoptotic effect was applied in accordance with the comprehensive description in Supplementary data[36]^,[37]
# (§7) 4. Flow cytometry analysis for apoptosis
# Flow cytometry cell apoptosis analysis was used to investigate the apoptotic effect of the synthesized compounds. HepG2 cells were treated with compound 12l (10.50 µM) for 24 h, collected by trypsin, centrifuged, washed two successive times with PBS, suspended in 500 μl binding buffer, and double stained with 5 μl Annexin V-FITC and 5 μl PI in the dark at room temperature for 15 min. The stained cells were measured using Epics XL-MCL™ Flow Cytometer and analyzed using Flowing software. […]
# WI-38 cell line = test: In vitro cytotoxicity against normal cell line (MTT); design: LogIC50 best-fit value, WI-38: unit not given here
# Excerpt: […]. Such values were very high in comparison to the corresponding values on cancer cell lines, which reflect high safety profile of the tested candidates towards normal cell lines.
# as §1, §2, §3, §4, §5, §6
# Caspase-3 = test: Western blot, caspase-3 level in HepG2 cells; details: HepG2, 10.50 µM, 24 h
# Procedure: Caspase-3 has a key role in apoptosis initiation and execution[26]^,[27]. The western blot technique was used to investigate the effect of compound 12 l, the most promising member, on the caspase-3 level. HepG2 cells were treated with 12l (10.50 µM) for 24 h.
# The western blot technique was applied in accordance with the comprehensive description in Supplementary data[38–40]
# as §7
# Flow cytometry cell apoptosis analysis was used to investigate the apoptotic effect of the synthesized compounds. […] The stained cells were measured using Epics XL-MCL™ Flow Cytometer and analyzed using Flowing software.
# The proteins expression of cleaved caspase‐3, BAX, and Bcl‐2 were determined using Western blot analysis. […]
# Then cells were lysed in 250 μL precold lysis buffer (pH 7.4: Tris‐Base [10 mM], NaCl [100 mM], ethylenediaminetetraacetic acid [EDTA, 25 mM], ethylene glycol bis (2‐aminoethyl) tetraacetic acid [EGTA, 25 mM], 1% [v/v] NP‐40, and 1% [v/v] Triton X‐100) supplemented with 1:350 protease:phosphatase inhibitors cocktail (Sigma). […] Total protein concentrations in the supernatant were determined colorimetrically using the Pierce 660 nm Protein Assay method (Thermo Fisher Scientific, Rockford, IL), with BSA as the standard. […]
# [1] = HepG2, 24 h, mean ± SEM of two experiments
# [2] = supplement raw data, dose-response curve fit
smiles,measurement,setting,value
"Cc1ccc2oc(SCC(=O)Nc3ccc(C(=O)Nc4cccc(Cl)c4)cc3)nc2c1 [Compound 12l, N-(3-Chlorophenyl)-4–(2-((5-methylbenzo[d]oxazol-2-yl)thio)acetamido)benzamide]",IC50,"MCF-7 cell line; MCF7, 24 h, MTT, 24 h treatment, mean of three experiments, read-out: In vitro IC50 MCF-7",15.2 ± 1.1 µM
same,IC50,"MCF-7 cell line; MCF7, supplement raw data, dose-response curve fit, read-out: LogIC50 best-fit value, MCF-7 (converted)",15.2 µM
same,Protein expression (normalized to β-actin) BAX,BAX; control = 1.00,3.40 ± 0.15
same,Protein expression (normalized to β-actin) BAX/Bcl-2 ratio,BAX; control = 1.00,6.83 ± 0.96
same,BAX level increase,BAX; versus control,3.40 fold
same,BAX/Bcl-2 ratio increase,BAX; versus control,6.83 fold
same,Early apoptotic phase,"HepG2 cells; HepG2, 10.50 µM, 24 h",32.45%
same,Late apoptotic phase,"HepG2 cells; HepG2, 10.50 µM, 24 h",2.86%
same,Apoptosis Early (Right Bottom),HepG2 cells; [1],32.45 ± 3.13
same,Apoptosis Late (Right Top),HepG2 cells; [1],2.86 ± 0.21
same,Necrosis (Left Top),HepG2 cells; [1],0.14 ± 0.06
same,Viable (Left Bottom),"HepG2 cells; HepG2, 24 h, mean ± SEM of two experiments, in %",64.55 ± 3.43
same,IC50,"WI-38 cell line; WI-38, normal human lung cell line, MTT",37.8 µM
same,"HillSlope best-fit value, WI-38",WI-38 cell line; [2],-0.4502
same,"LogIC50 best-fit value, WI-38",WI-38 cell line; [2],1.577
same,Protein expression (normalized to β-actin) Caspase-3,Caspase-3; control = 1.00,2.98 ± 0.13
same,Caspase-3 level increase,Caspase-3; versus control,2.98 fold
